The values that follow come from BindingDB's records for doi:10.7270/Q2N58JS6 (University of Pittsburgh, 2007).

The test deals with Serine/threonine-protein kinase PLK1 (Homo sapiens, UniProt P53350). Put plainly: H2O2 production by redox-active compounds – biochemical, 1 mM DTT, artefact control for Plk1 PBD inhibitor project, dose response (AID 936).
Sequence of Serine/threonine-protein kinase PLK1 (P53350 whole entry): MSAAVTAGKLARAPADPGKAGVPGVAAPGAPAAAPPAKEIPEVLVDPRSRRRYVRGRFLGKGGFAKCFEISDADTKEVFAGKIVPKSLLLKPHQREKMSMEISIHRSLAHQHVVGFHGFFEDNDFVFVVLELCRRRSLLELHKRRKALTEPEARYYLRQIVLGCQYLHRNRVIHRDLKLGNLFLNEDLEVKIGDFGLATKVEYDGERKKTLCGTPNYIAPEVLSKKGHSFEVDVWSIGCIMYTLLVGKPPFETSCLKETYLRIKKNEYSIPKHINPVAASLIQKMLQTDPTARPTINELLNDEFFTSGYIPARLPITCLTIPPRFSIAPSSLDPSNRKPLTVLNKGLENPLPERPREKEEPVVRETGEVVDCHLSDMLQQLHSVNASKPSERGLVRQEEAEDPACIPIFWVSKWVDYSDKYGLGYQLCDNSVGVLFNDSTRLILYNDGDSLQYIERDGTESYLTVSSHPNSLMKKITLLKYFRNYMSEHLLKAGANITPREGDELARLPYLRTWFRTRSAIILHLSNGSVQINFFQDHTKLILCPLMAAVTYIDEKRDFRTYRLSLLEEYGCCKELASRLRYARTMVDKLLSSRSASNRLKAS

On to `CC(C)Sc1nc(N2CCOCC2)c2c(c1C#N)CC(C)(C)N(C)C2` [3-(isopropylthio)-6,6,7-trimethyl-1-morpholino-5,8-dihydro-2,7-naphthyridine-4-carbonitrile], for which the EC50 (in general, the concentration needed to bring the measured effect to its halfway point) was > 50 µM. As for `O=C1CCC(C(=O)O)(c2ccccc2)C1` (stereo not drawn) [3-Oxo-1-phenyl-cyclopentanecarboxylic acid], the 50% effective concentration (EC50) is > 50 µM.

For `Cc1ccc2cc(C(c3nnnn3C3CCCC3)N3CCN(c4ccccc4)CC3)c(=O)[nH]c2c1` (stereo not drawn) [3-[(1-cyclopentyltetrazol-5-yl)-(4-phenylpiperazin-1-yl)methyl]-7-methyl-1H-quinolin-2-one], the EC50 was > 50 µM. For the compound `CC1CCCC(NC2CCCCNC2=O)C1` (stereo not drawn) [3-[(3-methylcyclohexyl)amino]-2-azepanone], the 50% effective concentration (EC50) is > 50 µM. For the compound `Cc1nc2cccc(C)n2c(=O)c1Cl` [3-chloranyl-2,6-dimethyl-pyrido[1,2-a]pyrimidin-4-one], the 50% effective concentration (EC50) is > 50 µM. As for `CCn1cnc2sc(C(=O)N3CCN(c4ccc(OC)cc4)CC3)c(C)c2c1=O` [3-ethyl-6-[4-(4-methoxyphenyl)piperazin-1-yl]carbonyl-5-methyl-thieno[2,3-d]pyrimidin-4-one], the EC50 is > 50 µM. `O=C1Nc2ccc([N+](=O)[O-])cc2C1(O)N1CCCCC1` (stereo not drawn) [3-hydroxy-5-nitro-3-(1-piperidinyl)-1,3-dihydro-2H-indol-2-one]: the EC50 is > 50 µM.

`CC1CN(C2CC(C)(C)NC(C)(C)C2)CCC1=O` (stereo not drawn) [3-methyl-1-(2,2,6,6-tetramethyl-4-piperidinyl)-4-piperidinone]: the concentration for a half-maximal effect (EC50) is > 50 µM.

`O=C(NC(NC(=S)Nc1ccc(Cl)cc1Cl)C(Cl)(Cl)Cl)c1cccc([N+](=O)[O-])c1` (stereo not drawn) [3-nitro-N-[2,2,2-trichloro-1-({[(2,4-dichlorophenyl)amino]carbonothioyl}amino)ethyl]benzamide] gave an EC50 of 28.2 µM. In other words, the double-digit micromolar range. For `Cc1cccc(C)c1NC1=NC(=S)N(c2ccccc2)C12CCOC(C)(C)C2` (stereo not drawn) [4-(2,6-dimethylanilino)-7,7-dimethyl-1-phenyl-8-oxa-1,3-diazaspiro[4.5]dec-3-ene-2-thione], the EC50 was > 50 µM. For `Cc1ccccc1Oc1ncnc2oc(-c3ccccc3)cc12` [4-(2-methylphenoxy)-6-phenyl-furo[2,3-d]pyrimidine], the EC50 is > 50 µM. `Cc1ccc(C(=O)c2c[nH]c(C(=O)NCCCN3CCOCC3)c2)cc1` [4-(4-methylbenzoyl)-N-(3-morpholin-4-ylpropyl)-1H-pyrrole-2-carboxamide]: the EC50 is > 50 µM. Next, `CN(C)c1ccc(C(=O)Nc2nc3c(s2)CCCC3)cc1` [4-(dimethylamino)-N-(4,5,6,7-tetrahydro-1,3-benzothiazol-2-yl)benzamide]: > 50 µM; `O=C(CN1C(=O)COc2ccccc21)NCc1ccc(C(=O)O)cc1` [4-[[2-(3-oxidanylidene-1,4-benzoxazin-4-yl)ethanoylamino]methyl]benzoic acid]: > 50 µM; `CCCc1nc2sc3c(c2c(=O)n1NC(=O)CCC(=O)O)CCCC3` [4-keto-4-[(4-keto-2-propyl-5,6,7,8-tetrahydrobenzothiopheno[2,3-d]pyrimidin-3-yl)amino]butyric acid]: > 50 µM. For `Cc1ccc(C(=O)Nc2cnc3sc(C)nn3c2=O)cc1` [4-methyl-N-(2-methyl-5-oxidanylidene-[1,3,4]thiadiazolo[3,2-a]pyrimidin-6-yl)benzamide], the 50% effective concentration (EC50) is > 50 µM.

With `CC1(C)CC(=O)C=C(NCc2ccncc2)C1` [5,5-dimethyl-3-(4-pyridylmethylamino)cyclohex-2-en-1-one], the concentration for a half-maximal effect (EC50) is > 50 µM. Consider `CC(C)(C)NC(=O)CC(CC(=O)O)c1ccccc1` (stereo not drawn) [5-(tert-butylamino)-5-keto-3-phenyl-valeric acid], for which the EC50 is > 50 µM. Consider `C=CCn1c2ccccc2c2nnc(SCc3ccc4nonc4c3)nc21` [5-[(5-prop-2-enyl-[1,2,4]triazino[5,6-b]indol-3-yl)sulfanylmethyl]-2,1,3-benzoxadiazole], for which the 50% effective concentration (EC50) is > 50 µM. `O=C(CNS(=O)(=O)c1ccc(Br)s1)N1CCCC1` [5-bromanyl-N-(2-oxidanylidene-2-pyrrolidin-1-yl-ethyl)thiophene-2-sulfonamide]: the half-maximal effective concentration (EC50) was > 50 µM. As to `Cc1ccc(NC(=O)C2CC=CCC2C(=O)N2CCCCC2)cc1` (stereo not drawn) [6-(Piperidine-1-carbonyl)-cyclohex-3-enecarboxylic acid p-tolylamide], the concentration giving a half-maximal response (EC50) is > 50 µM. Turning to `COc1ccc2c3c(cccc13)NN=C2C` [6-Methoxy-3-methyl-1H-benzo[de]cinnoline], the concentration giving a half-maximal response (EC50) was > 50 µM. On to `Cc1ccc(Cl)cc1N1CCN(S(=O)(=O)c2ccc3c(c2)oc(=O)n3C)CC1` [6-[4-(5-chloranyl-2-methyl-phenyl)piperazin-1-yl]sulfonyl-3-methyl-1,3-benzoxazol-2-one], for which the concentration for a half-maximal effect (EC50) is > 50 µM. For the compound `CC(C)Nc1nnc(SCC(=O)c2c(N)n(Cc3ccccc3)c(=O)n(C)c2=O)s1` [6-amino-1-benzyl-3-methyl-5-[2-[[5-(propan-2-ylamino)-1,3,4-thiadiazol-2-yl]sulfanyl]acetyl]pyrimidine-2,4-dione], the concentration giving a half-maximal response (EC50) was > 50 µM. Regarding `O=C1CCN2C=Nc3cccc4ccc1c2c34` [7,8-dihydro-9H-pyrido[1,2,3-cd]perimidin-9-one], the concentration for a half-maximal effect (EC50) is > 50 µM.

Regarding `CCOC(=O)c1c2c(n(C)c1C)C(=O)C(=O)c1ccc(Br)cc1-2` [8-bromo-2,3-dimethyl-4,5-dioxo-1-benzo[e]indolecarboxylic acid ethyl ester], the EC50 was determined as 0.723 µM. As to `Oc1ccc2ccc3cccc[n+]3c2c1` [9-benzo[c]quinolizin-11-iumol;iodide], the concentration giving a half-maximal response (EC50) was > 50 µM. As to `COc1ccc(N(C)C2=NS(=O)(=O)c3ccccc32)cc1` [(1,1-Dioxo-1H-1lambda*6*-benzo[d]isothiazol-3-yl)-(4-methoxy-phenyl)-methyl-amine], the EC50 is > 50 µM.

Regarding `CC1Cc2ccccc2N1C(=O)c1ccc2c(c1)nnn2C` (stereo not drawn) [(1-methyl-5-benzotriazolyl)-(2-methyl-2,3-dihydroindol-1-yl)methanone], the concentration for a half-maximal effect (EC50) was > 50 µM. On to `COc1cccc(OC)c1C(=O)N1CCN(c2ccccn2)CC1` [(2,6-dimethoxyphenyl)-(4-pyridin-2-ylpiperazin-1-yl)methanone], for which the concentration giving a half-maximal response (EC50) was > 50 µM. `O=[N+]([O-])c1ccc(N2CCNCC2)cc1NCC1CCCO1` (stereo not drawn) [(2-nitro-5-piperazino-phenyl)-(tetrahydrofurfuryl)amine]: the EC50 was > 50 µM.

Take `CCOC(=O)Cc1csc(NC(=O)CSc2nnc(-c3ccc(F)cc3)o2)n1` [(2-{2-[5-(4-Fluoro-phenyl)-[1,3,4]oxadiazol-2-ylsulfanyl]-acetylamino}-thiazol-4-yl)-acetic acid ethyl ester]: the concentration for a half-maximal effect (EC50) was > 50 µM.

As to `CCc1noc(C)c1C(=O)N1CCOCC1` [(3-ethyl-5-methyl-1,2-oxazol-4-yl)-morpholin-4-yl-methanone], the EC50 is > 50 µM. As for `CC1Cn2c(nnc2-c2cc3ccccc3cc2O)S1` (stereo not drawn) [(3E)-3-(6-methyl-5,6-dihydro-2H-[1,3]thiazolo[2,3-c][1,2,4]triazol-3-ylidene)naphthalen-2-one], the EC50 was > 50 µM. Take `COc1ccc2c(c1OC)C(=O)OC2CC(=O)O` (stereo not drawn) [(4,5-dimethoxy-3-oxo-1,3-dihydro-2-benzofuran-1-yl)acetic acid]: the EC50 is > 50 µM. Take `Nc1cc2nsnc2cc1Br` [(6-bromopiazthiol-5-yl)amine]: the 50% effective concentration (EC50) is > 50 µM.

As to `OCC(CO)(CO)N=Cc1cc(Br)ccc1O` [(6E)-4-bromanyl-6-[[[2-(hydroxymethyl)-1,3-bis(oxidanyl)propan-2-yl]amino]methylidene]cyclohexa-2,4-dien-1-one], the concentration giving a half-maximal response (EC50) is > 50 µM. On to `C/C(=C\C(=O)Nc1cc(C)on1)c1ccccc1` [(E)-N-(5-methyl-1,2-oxazol-3-yl)-3-phenyl-but-2-enamide], for which the half-maximal effective concentration (EC50) is > 50 µM. For `CCC(=O)N1CCN(c2ccc(NC(=O)c3ccc4c(c3)OCO4)cc2)CC1` [Benzo[1,3]dioxole-5-carboxylic acid [4-(4-propionyl-piperazin-1-yl)-phenyl]-amide], the EC50 was > 50 µM. With `O=C(NC1(C(F)(F)F)NC(=O)N(CC2CCCCC2)C1=O)c1ccco1` (stereo not drawn) [MLS000040678], the half-maximal effective concentration (EC50) is > 50 µM. On to `CCn1ccc(C(=O)Nc2ccc(N(C)C(C)=O)cc2)n1` [MLS000043435], for which the concentration for a half-maximal effect (EC50) was > 50 µM. Regarding `Cc1ccccc1NS(=O)(=O)c1cc(C(=O)NCc2ccco2)ccc1C` [MLS000052108], the EC50 is > 50 µM. Next, `c1ccc(NCc2nnc3n2CCCCC3)cc1` [MLS000057041]: > 50 µM. As for `CCc1nc2cc(Cl)c(Cl)cc2[nH]1` [MLS000064722], the half-maximal effective concentration (EC50) is > 50 µM. Consider `COc1ccc(C(C)C)cc1S(=O)(=O)Nc1ccc(Cl)cn1` [MLS000071127], for which the EC50 is > 50 µM. With `O=C1C(=C2C(=O)c3ccccc3C2=O)Nc2ccccc21` [MLS000071738], the concentration giving a half-maximal response (EC50) is > 50 µM. As for `CCC(=O)Nc1ccc(-c2nnc(SCC(=O)Nc3nccs3)n2C)cc1` [MLS000076456], the half-maximal effective concentration (EC50) was > 50 µM.

For the compound `CC(C)OCCCNC(=O)c1ccc(NC(=O)C2CCCO2)cc1` (stereo not drawn) [MLS000086701], the EC50 was > 50 µM. Take `CCOCCCNC(=O)CCCOc1ccccc1` [MLS000088375]: the EC50 was > 50 µM. `CC(C)=CC(=O)NCCc1ccccc1` [MLS000089152]: the concentration giving a half-maximal response (EC50) was > 50 µM.

In the case of `O=C(COc1ccccc1)Nc1ccc(S(=O)(=O)N2CCOCC2)cc1` [MLS000108227], the concentration giving a half-maximal response (EC50) was > 50 µM.

On to `CCC(C)c1ccc(NC(=O)C2CC2)cc1` (stereo not drawn) [MLS000110184], for which the EC50 was > 50 µM. Next, `O=C(Nc1nc2ccccc2s1)c1cc2c(s1)-c1ccccc1OC2` [MLS000522634]: > 50 µM; `Cn1cc(SCC(=O)Nc2ccc3c(c2)OCCO3)c2ccccc21` [MLS000529783]: > 50 µM; `CCC(=O)Nc1ccccc1C(=O)NC1CCCCC1` [MLS000538265]: > 50 µM. As for `Cc1[nH]n2c(=O)cc(-c3ccc([N+](=O)[O-])cc3)nc2c1-c1ccccc1` [MLS000547439], the EC50 is > 50 µM. `CCOc1ccccc1N1CCN(C2=C(NS(=O)(=O)c3cccs3)C(=O)c3ccccc3C2=O)CC1` [MLS000551587]: the concentration giving a half-maximal response (EC50) was > 50 µM. Next, `O=C(NCCc1ccccc1)/C(=C\c1ccc([N+](=O)[O-])cc1)NC(=O)c1ccccc1` [MLS000575866]: > 50 µM.
